Entries after “also recorded” stand apart in the source; their conditions may differ.
Experiments:
[1] = test system: uninfected human T-lymphoid cell-line, H-9; test: Viability and growth of uninfected H-9 cells (trypan-blue exclusion); format: cell-based; conditions: for cell viability (percentage of viable cells): through 6 days of incubation
Description: Every two or three days, 50-80% of cell suspensions were removed, and the same amount of fresh medium, with the same concentrations of the compound to be analyzed were added for further incubation. At the same time-points, viable cells were counted for calculating the relative cell growth value, by the trypan-blue exclusion method. At the same time, cell viability was also monitored as the percentage of viable cells in the total cell population.

[2] = test system: HIV-1 production of H-9/IIIB cells; test: HIV-1 p24 antigen production from H-9/IIIB cells at 1.25 or 2.5 mM (ELISA); format: cell-based, HIV-1 (HIV-1IIIB); conditions: for HIV-1 production (p24 antigen) from H-9/IIIB cells: days two and four; for production of HIV-1 from chronically infected cells: high doses, up to a concentration of 2.5 mM
Description: H-9/IIIB cells were washed thoroughly with phosphate-buffered saline (PBS) and resuspended at a density of 1×10^5 /ml in RPMI-1640/10% FBS with or without 1.25 or 2.5 mM of γ-GCE, GSH, or NAC. Since H-9/IIIB cells are constantly producing a large quantity of virus particles, stimulation with factors such as TNF-α or PMA were not required for carrying out these experiments. After two and four days, culture supernatant was removed, centrifuged to remove cells and debris, and evaluated by HIV-1 p24 antigen quantification. Measurement of the HIV-1 p24 antigen was performed by a sensitive enzyme-linked immunosorbant assay (ELISA) (DuPont).

[3] = test system: HIV-1 virus stock (NL4-3); test: Direct inactivation of HIV-1 by pre-incubation, then acute infection of H9 cells; format: cell-based, HIV-1 (NL4-3); conditions: for infectivity of HIV-1 after pre-incubation: 4 hours at 37° C., no viral production 15 days post-infection
Description: An HIV-1 virus stock (NL4-3) containing 6 ng of HIV-1 p24 antigen was pre-incubated in the presence or absence of γ-GCE in 20 ml of RPMI-1640/10% FBS for 4 hr at 37° C. Afterwards, acute infection of H9 cells were carried out, using […] of each pretreated virus suspension into 1 ml of the cell suspension without γ-GCE, as described in the previous subsection. Sampling and maintenance of cell culture were also performed, following the same procedure as described in the previous subsection, without adding any γ-GCE through passage.

[4] = test system: HIV-1 strain NL-4-3 in H-9 cells; test: Acute HIV-1 infection of H-9 cells; format: cell-based, HIV-1 (NL4-3)
Description: Virus stocks of the HIV-1NL4-3strain were prepared and titered as described previously (Hum Gene Ther 1995; 6: 1561-1571). H-9 cells (3×10^5cells.) were suspended in 1 ml of growth medium with or without γ-GCE at a variety of concentrations, and seeded in a chamber of a 24-well tissue culture plate. Virus suspension containing 30 pg of HIV-1 p24 antigen was added to each chamber, for the initial infection. Infection was carried out overnight at 37° C., then the cells were washed once with PBS, and once more with growth medium. The supernatant of the final wash was saved as a day 0 time-point. Washed cells were resuspended with corresponding media for further incubation at 37° C. Once in three days, cell suspensions and supernatants were harvested for cell counting and HIV-1 p24 antigen quantification. Measurement of cell growth, viability, and virus production were performed as described in a previous subsection. On the days of harvest, 200 μl of cell suspension was left in each well, and 800 μl of fresh medium with corresponding concentrations of γ-GCE was added to support cell growth, except day 18, on which 400 μl of cell suspension was left and 600 μl of medium was added to each well. Cell numbers at each time-point were determined accordingly, based on the accumulation of dilution factors along with the frequency of passage.

[5] = test system: H-9/IIIB cells (H-9 cells infected with HIV-1IIIB); test: Viability and growth of chronically HIV-1-infected H-9/IIIB cells (trypan-blue exclusion); format: cell-based, human
Description: The uninfected human T-lymphoid cell-line, H-9, or H-9 cells infected with an HIV-1 strain, HIV-1IIIB (H-9/IIIB) (Science 1984; 224:497-500), were seeded in 24 or 96 well tissue culture plates at a density of 2-2.5×10^5 /ml and maintained in RPMI-1640 tissue culture medium supplemented with 10% fetal bovine serum (FBS), with or without a variety of concentrations of γ-GCE, GSH, or NAC. Every two or three days, 50-80% of cell suspensions were removed, and the same amount of fresh medium, with the same concentrations of the compound to be analyzed were added for further incubation. At the same time-points, viable cells were counted for calculating the relative cell growth value, by the trypan-blue exclusion method. At the same time, cell viability was also monitored as the percentage of viable cells in the total cell population. […]

[6] = test system: HIV-1 production of H-9/IIIB cells; test: HIV-1 p24 antigen production from H-9/IIIB cells at low, non-toxic doses; format: cell-based, HIV-1 (HIV-1IIIB); conditions: for HIV-1 production (p24 antigen) of H-9/IIIB cells: days three and six
Description: H-9/IIIB cells were washed with PBS and seeded at a density of 2×10^5 /ml in RPMI-1640/10% FBS with or without 0.2or 0.4 mM of γ-GCE. Three and six days after initiation of experiments, culture supernatants were sampled and assayed, as described above. On day three, 72% of each cell suspension was removed, and fresh medium with a corresponding GSH pro-drug was added. Total HIV-1 p24 antigen production values on day six were deduced by multiplying raw values, on day six, with the dilution factor on day three.

[7] = some decrease in relative cell growth, minimal decrease in viability after 6 days

N[C@@H](CCC(=O)N[C@@H](CS)C(=O)NCC(=O)O)C(=O)O [GSH, glutathione]
effect on cell viability and growth of uninfected H-9 cells ([1]; 2.5 mM): no negative effects on growth | cell viability (percentage of viable cells) ([1]; uninfected H-9 cells, 2.5 mM): ≥ 90% | HIV-1 production (p24 antigen) from H-9/IIIB cells ([2]; 1.25 mM): neither GSH (triangles) nor NAC (rectangles) can overwhelm the vigorous HIV-1 production; also recorded: Neither GSH nor NAC could overwhelm the vigorous HIV-1 production; also recorded: did not alter viral expression | HIV-1 production (p24 antigen) from H-9/IIIB cells ([2]; 2.5 mM): increased the virus production | production of HIV-1 from chronically infected cells [2]: neither GSH nor other GSH precursors show inhibitory effects

CC(=O)N[C@@H](CS)C(=O)O [NAC, N-acetylcysteine]
effect on cell viability and growth of uninfected H-9 cells ([1]; 2.5 mM): no negative effects on growth | cell viability, lowest value ([1]; uninfected H-9 cells, 2.5 mM, Day 4): 91.75±0.45% | cell viability (percentage of viable cells) ([1]; uninfected H-9 cells, 2.5 mM): ≥ 90% | HIV-1 production (p24 antigen) from H-9/IIIB cells ([2]; 1.25 mM): neither GSH (triangles) nor NAC (rectangles) can overwhelm the vigorous HIV-1 production; also recorded: Neither GSH nor NAC could overwhelm the vigorous HIV-1 production; also recorded: did not alter viral expression | HIV-1 production (p24 antigen) from H-9/IIIB cells ([2]; 2.5 mM): increased the virus production

CCOC(=O)[C@H](CS)NC(=O)CC[C@H](N)C(=O)O [γ-GCE, γ-L-glutamyl-L-cysteine ethyl ester]
propagation of HIV-1 in H-9 cells after pre-incubation of virus ([3]; 625 μM, 4 hours): only some delay of the onset | infectivity of HIV-1 after pre-incubation ([3]; 1.25 mM): completely inactivates; also recorded: loss of infectivity | infectivity of HIV-1 after pre-incubation ([3]; 2.5 mM): completely inactivates; also recorded: loss of infectivity | time in which infectivity of HIV-1 is directly inhibited ([3]; relatively high doses): within four hours | viral infectivity after pre-incubation ([3]; same concentrations (625 μM-2.5 mM), one hour, data not illustrated): did not show significant interference | propagation of HIV-1 (total HIV-1 p24 antigen) ([4]; 1.6 mM, 21 days postinfection): completely blocked | syncytia-formation ([4]; 1.6 mM, data not illustrated): not significantly observed | growth and viability of HIV-1-inoculated H-9 cells ([4]; 1.6 mM, entire experiments): continued to grow actively, maintaining high viability | acute infection (total HIV-1 p24 antigen) ([4]; 400-800 μM): not inhibited significantly | propagation of HIV-1 in acute infection of T-lymphocytic cells ([4]; relatively high doses): entirely blocked | effect on cell viability and growth of uninfected H-9 cells ([1]; 2.5 mM): unaffected; also recorded: no negative effects on cell viability and growth | concentration giving equivalent cytotoxic profile on H-9 cells [1, 7]: ~5000 µM | cell viability (percentage of viable cells) ([1]; uninfected H-9 cells, 2.5 mM): ≥ 90% | discrepancy of the thresholds of the toxic doses between infected and uninfected cells [5]: more than ten-fold | cell viability of H-9/IIIB cells ([5]; 200 μM and 400 μM (either dose)): > 86% | cell growth of H-9/IIIB cells ([5]; 400 μM): Slower cell growth | cell growth of H-9/IIIB cells ([5]; 800 μM): dramatically impairs growth; also recorded: dramatically impaired | cell growth of H-9/IIIB cells ([5]; 800 μM, after 12 days of treatment): no significant cell growth | sensitivity of H-9/IIIB cells to γ-GCE relative to uninfected cells (selective toxicity) ([5]; 5 mM on H-9 vs 400 μM on H-9/IIIB, equivalent cytotoxic profiles): approximately 12.5 times | cell growth relative to control ([5]; H-9/IIIB, 800 μM, day six): less than 40 % of the control | concentration giving equivalent cytotoxic profile on H-9/IIIB cells [5, 7]: ~400 µM | HIV-1 production (p24 antigen) of H-9/IIIB cells ([6]; 200 μM): significantly inhibited | HIV-1 production (p24 antigen) of H-9/IIIB cells ([6]; 400 μM): significantly inhibited | viral production from chronically HIV1-expressing cells ([6]; lower concentrations (200-400 μM), viability not affected): significantly represses | HIV-1 production (p24 antigen) from H-9/IIIB cells ([2]; 1.25 mM): almost completely shut-off | HIV-1 production (p24 antigen) from H-9/IIIB cells ([2]; 2.5 mM): almost completely shut-off | production of HIV-1 from chronically infected cells [2]: potently inhibits the production of HIV-1

From patent US6251868A, “Method for treating a human immunodeficiency virus infection” (Teijin Limited, priority 1998, dated 2001)
